Measured values as given in publication PMC7858579, “Biochemical and structural characterization of a recombinant fibrinogen-related lectin from Penaeus monodon” (Scientific Reports, 2021).

Tests used:
[1] = target: T1, His6 PmFREP (PmFREP; PL5-1) (Penaeus monodon, UniProt A0A068LKH5, G184D); experiment: inhibition of human red blood cell (type A) agglutination; type: cell-based; conditions: 0.5 uM His6 PmFREP, 3% (v/v) red blood cells; multivalent avidity assay
T1 construct: full length without native signal peptide; XEEL signal peptide (cleaved), N-terminal His6 tag kept; native part starts GTTERTDTA (from primer); Trichoplusia ni cells; disulfide-linked dimer of pentamers

[2] = target: T1, His6 PmFREP (PmFREP; PL5-1); experiment: binding to GlcNAc affinity resin and competitive elution, western blot; conditions: 100 mM monosaccharide, 20 mM HEPES pH 7.5, 150 mM NaCl, 10 mM CaCl2

T1 sequence (A0A068LKH5 entry or part of it G184D): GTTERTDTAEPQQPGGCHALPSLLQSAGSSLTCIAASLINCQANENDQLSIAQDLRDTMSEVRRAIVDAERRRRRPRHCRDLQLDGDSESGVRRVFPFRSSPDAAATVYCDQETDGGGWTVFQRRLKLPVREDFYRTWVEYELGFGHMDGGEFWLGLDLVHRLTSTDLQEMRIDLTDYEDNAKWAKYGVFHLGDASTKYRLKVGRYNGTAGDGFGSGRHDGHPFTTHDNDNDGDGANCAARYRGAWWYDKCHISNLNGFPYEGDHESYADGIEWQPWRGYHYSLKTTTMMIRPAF

| Compound | concentration inhibiting agglutination [1] | binding to GlcNAc affinity resin and competitive elution, western blot [2] |
| --- | --- | --- |
| CC(=O)N[C@H]1C(O)O[C@H](CO)[C@H](O)[C@@H]1O (some centres unmarked) [GalNAc, N-acetylgalactosamine] | ~ 10 mM | – |
| CC(=O)N[C@H]1C(O)O[C@H](CO)[C@@H](O)[C@@H]1O (some centres unmarked) [GlcNAc] | ~ 10 mM | His6 PmFREP can bind GlcNAc as expected for fibrinogen-like lectin |
| CC(=O)N[C@@H]1C(O)O[C@H](CO)[C@@H](O)[C@@H]1O (some centres unmarked) [ManNAc, N-acetylmannosamine] | 1 mM | – |
| CC(=O)N[C@H]1[C@H]([C@H](O)[C@H](O)CO)OC(O)(C(=O)O)C[C@@H]1O (some centres unmarked) [Neu5Ac, N-acetylneuraminic acid] | 5 mM | – |
